According to ChEMBL document CHEMBL1921725, “Synthesis and SAR development of novel P2X7 receptor antagonists for the treatment of pain: part 2” (Bioorg Med Chem Lett, 2011):
Activity calls are given as the source filed them. The rule behind the calls is not given here.

Experiments:
P2X purinoceptor 7 [1] = target: T1, P2X purinoceptor 7 (Homo sapiens, UniProt Q99572); test: Antagonist activity at P2X7 receptor in LPS-stimulated human whole blood assessed as inhibition of ATP-induced IL1-beta production treated 30 mins before LPS challenge measured after 3 hrs by ELISA; type: functional, tissue-based
T1 sequence (Q99572 whole entry): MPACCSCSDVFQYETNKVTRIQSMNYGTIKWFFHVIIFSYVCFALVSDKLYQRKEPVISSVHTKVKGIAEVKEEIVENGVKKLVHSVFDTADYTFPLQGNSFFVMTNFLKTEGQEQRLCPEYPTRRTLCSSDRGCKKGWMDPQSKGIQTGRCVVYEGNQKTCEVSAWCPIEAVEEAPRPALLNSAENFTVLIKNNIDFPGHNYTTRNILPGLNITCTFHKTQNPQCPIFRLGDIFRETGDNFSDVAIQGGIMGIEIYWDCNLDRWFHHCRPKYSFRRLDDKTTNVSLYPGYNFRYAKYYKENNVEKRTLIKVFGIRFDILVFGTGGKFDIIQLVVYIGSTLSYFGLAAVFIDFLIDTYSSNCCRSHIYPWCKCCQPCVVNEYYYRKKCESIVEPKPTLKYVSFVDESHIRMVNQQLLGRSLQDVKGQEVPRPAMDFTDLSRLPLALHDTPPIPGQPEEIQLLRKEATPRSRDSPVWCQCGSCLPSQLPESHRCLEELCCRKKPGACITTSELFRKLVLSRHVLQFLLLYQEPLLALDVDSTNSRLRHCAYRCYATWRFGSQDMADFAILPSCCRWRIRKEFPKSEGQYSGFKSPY

[2] = AUC in rapid rat model at 10 mg/kg, po; type: ADME, organism-based; design: dose 10 mg/kg, route oral; settings: in vivo
[3] = Plasma concentration in rapid rat model plasma at 10 mg/kg, po after 6 hrs; type: ADME, organism-based; design: dose 10 mg/kg, route oral
P2X purinoceptor 7 [4] = target: T2, P2X purinoceptor 7 (Rattus norvegicus, UniProt Q64663); test: Antagonist activity at P2X7 receptor in rat whole blood; type: functional, tissue-based
T2 sequence (Q64663 whole entry): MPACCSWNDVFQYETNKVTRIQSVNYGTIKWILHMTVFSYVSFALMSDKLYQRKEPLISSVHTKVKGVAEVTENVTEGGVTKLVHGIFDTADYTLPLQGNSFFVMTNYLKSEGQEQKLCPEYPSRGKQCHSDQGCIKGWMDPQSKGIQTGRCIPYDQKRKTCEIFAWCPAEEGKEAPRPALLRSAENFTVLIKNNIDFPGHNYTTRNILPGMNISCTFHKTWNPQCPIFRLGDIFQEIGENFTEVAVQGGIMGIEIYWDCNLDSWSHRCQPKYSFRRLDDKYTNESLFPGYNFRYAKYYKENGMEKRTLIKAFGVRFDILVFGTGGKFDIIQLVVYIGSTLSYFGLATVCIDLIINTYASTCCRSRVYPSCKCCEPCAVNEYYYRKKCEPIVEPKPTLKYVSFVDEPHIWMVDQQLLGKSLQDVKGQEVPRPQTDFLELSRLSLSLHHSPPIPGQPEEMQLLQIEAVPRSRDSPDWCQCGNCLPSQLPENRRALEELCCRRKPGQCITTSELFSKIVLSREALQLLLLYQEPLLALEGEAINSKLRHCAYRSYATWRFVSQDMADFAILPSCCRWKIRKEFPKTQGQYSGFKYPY

Rattus norvegicus [5] = test: Analgesic activity in rat streptozocin-induced diabetic neuropathy model at 10 mg/kg, po after 4 hrs relative to gabapentin; type: functional, organism-based; design: dose 10 mg/kg
Rattus norvegicus [6] = test: Analgesic activity in rat chronic constriction injury neuroinflammatory pain model at 60 mg/kg, po after 4 hrs relative to gabapentin; type: functional, organism-based; design: dose 60 mg/kg
Rattus norvegicus [7] = test: Antihyperalgesic activity in rat mono-iodacetate-induced hyperalgesia model at 50 mg/kg, po after 4 hrs relative to naproxen; type: functional, organism-based; design: dose 50 mg/kg
[8] = Inhibition of sodium channel site 2 at 10 uM
[9] = Inhibition of L-type calcium channel diltiazem binding site at 10 uM
[10] = Inhibition of chloride channel at 10 uM
[11] = target: Sodium-dependent noradrenaline transporter (Homo sapiens) (UniProt P23975); test: Inhibition of norepinephrine transporter at 10 uM
[12] = target: T3, P2X purinoceptor 4 (Homo sapiens) (UniProt Q99571); test: Inhibition of P2X4 receptor at 10 uM
T3 sequence (whole entry): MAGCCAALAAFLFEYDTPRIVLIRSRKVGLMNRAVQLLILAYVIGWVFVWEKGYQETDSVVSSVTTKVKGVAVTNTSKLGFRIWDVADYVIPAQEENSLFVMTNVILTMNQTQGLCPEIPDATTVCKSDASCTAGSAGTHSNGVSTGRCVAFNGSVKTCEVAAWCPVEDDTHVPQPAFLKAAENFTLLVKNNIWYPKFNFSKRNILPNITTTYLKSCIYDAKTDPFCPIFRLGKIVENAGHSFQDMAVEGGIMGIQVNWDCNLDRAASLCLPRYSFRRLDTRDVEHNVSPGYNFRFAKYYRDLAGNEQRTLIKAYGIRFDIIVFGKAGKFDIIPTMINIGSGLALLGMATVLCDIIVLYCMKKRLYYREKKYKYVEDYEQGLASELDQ

Rattus norvegicus [13] = test: Analgesic activity in rat chronic constriction injury neuroinflammatory pain model at 1 to 3 mg/kg, po after 4 hrs; type: functional, organism-based
Rattus norvegicus [14] = test: Antihyperalgesic activity in rat mono-iodacetate-induced hyperalgesia model at 1 to 3 mg/kg, po after 4 hrs; type: functional, organism-based
Rattus norvegicus [15] = test: Analgesic activity in rat spinal nerve ligation neuropathic pain model at 10 to 30 mg/kg, po after 4 hrs relative to pregabalin; type: functional, organism-based
Rattus norvegicus [16] = test: Analgesic activity in rat streptozocin-induced diabetic neuropathy model at 10 mg/kg, po after 4 hrs; type: functional, organism-based; design: dose 10 mg/kg

Chain of Sodium-dependent noradrenaline transporter (Homo sapiens) (P23975 whole entry): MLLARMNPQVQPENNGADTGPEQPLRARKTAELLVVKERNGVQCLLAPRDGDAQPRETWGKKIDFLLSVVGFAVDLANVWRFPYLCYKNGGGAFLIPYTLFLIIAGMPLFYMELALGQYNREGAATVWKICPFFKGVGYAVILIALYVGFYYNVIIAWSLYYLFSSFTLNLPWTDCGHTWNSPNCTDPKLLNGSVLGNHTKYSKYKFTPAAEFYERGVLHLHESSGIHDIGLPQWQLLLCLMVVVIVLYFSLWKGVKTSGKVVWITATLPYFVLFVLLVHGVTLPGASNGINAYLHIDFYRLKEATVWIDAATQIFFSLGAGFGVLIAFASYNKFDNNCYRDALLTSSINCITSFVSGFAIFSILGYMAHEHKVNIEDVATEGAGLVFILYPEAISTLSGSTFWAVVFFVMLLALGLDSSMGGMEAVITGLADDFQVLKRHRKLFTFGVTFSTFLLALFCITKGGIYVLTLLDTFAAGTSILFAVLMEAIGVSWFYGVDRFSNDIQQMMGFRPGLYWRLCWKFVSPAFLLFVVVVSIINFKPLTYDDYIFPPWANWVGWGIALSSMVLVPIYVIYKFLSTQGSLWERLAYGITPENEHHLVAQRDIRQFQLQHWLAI

SMILES | IC50 (P2X purinoceptor 7 [1]) | AUC [2] | concentration at 6 h [3] | other results
CCN1C(=O)c2nc(-c3ccc(-c4ccccc4)cc3)n(Cc3ccccc3F)c2N2C[C@@H](C(C)C)N=C12 | 937 nM | – | – | –
CCN1C(=O)c2nc(-c3ccc(-c4ccccc4)cc3)n(Cc3ccc(F)cc3F)c2N2C[C@@H](C(C)C)N=C12 | 845 nM | – | – | –
CCN1C(=O)c2nc(-c3ccc(-c4ccccc4)cc3)n(Cc3ccc(F)c(F)c3)c2N2CC(C)(C)N=C12 | 85 nM | 6.86 µM·h | 1370 nM | IC50 (P2X purinoceptor 7 [4]): 121 nM; Activity (Rattus norvegicus [5]): Active; Activity (Rattus norvegicus [6]): Active; Activity (Rattus norvegicus [7]): Active; inhibition [8]: > 80%; inhibition [9]: > 80%; inhibition [10]: > 80%; inhibition [11]: > 80%; inhibition [12]: 55%; Activity (Rattus norvegicus [13]): Active; Activity (Rattus norvegicus [14]): Active; Activity (Rattus norvegicus [15]): Active; Activity (Rattus norvegicus [16]): Active
CCN1C(=O)c2nc(-c3ccc(-c4ccccc4)cc3)n(Cc3ccc(F)c(F)c3)c2N2C[C@@H](C(C)C)N=C12 | 178 nM | 3.76 µM·h | 392 nM | –
CCN1C(=O)c2nc(-c3ccc(-c4ccc(OC(F)(F)F)cc4)nc3)n(Cc3ccc(F)c(F)c3)c2N2CC(C)(C)N=C12 | 1940 nM | – | – | –
CCN1C(=O)c2nc(-c3ccc(-c4ccc(F)cc4F)nc3)n(Cc3ccc(F)c(F)c3)c2N2CC(C)(C)N=C12 | 95 nM | 4.14 µM·h | 537 nM | –
CCN1C(=O)c2nc(-c3ccc(-c4ccccc4)cc3)n(Cc3ccc(F)cc3)c2N2CC(C)(C)N=C12 | 276 nM | – | – | –
CCN1C(=O)c2nc(-c3ccc(-c4ccccc4)cc3)n(Cc3cccc(F)c3)c2N2C[C@@H](C(C)C)N=C12 | 269 nM | – | – | –
CCN1C(=O)c2nc(-c3ccc(-c4ccccc4)cc3)n(Cc3cc(F)ccc3F)c2N2C[C@@H](C(C)C)N=C12 | 1040 nM | – | – | –
CCN1C(=O)c2nc(-c3ccc(-c4ccccc4)cc3)n(Cc3ccc(F)c(F)c3)c2N2CCC(C)(C)N=C12 | 108 nM | – | – | –
CCN1C(=O)c2nc(-c3ccc(-c4ccccc4)cc3)n(Cc3cccc(F)c3F)c2N2C[C@@H](C(C)C)N=C12 | 870 nM | – | – | –
CCN1C(=O)c2nc(-c3ccc(-c4ccccc4)cc3)n(Cc3ccc(F)c(F)c3)c2N2CC3(CCCCC3)N=C12 | 388 nM | – | – | –
CCN1C(=O)c2nc(-c3ccc(-c4ccccc4)cc3)n(Cc3ccc(F)cc3)c2N2C[C@@H](C(C)C)N=C12 | 237 nM | – | – | –
CCN1C(=O)c2nc(-c3ccc(-c4ccccc4)cc3)n(Cc3ccc(F)cc3F)c2N2CC(C)(C)N=C12 | 700 nM | – | – | –
CCN1C(=O)c2nc(-c3ccc(-c4ccccc4)cc3)n(Cc3cc(F)cc(F)c3)c2N2C[C@@H](C(C)C)N=C12 | 107 nM | 1.11 µM·h | 93 nM | –
CCN1C(=O)c2nc(-c3ccc(-c4ccccc4)cc3)n(Cc3cc(F)cc(F)c3)c2N2CC(C)(C)N=C12 | 91 nM | – | – | –

Now from value to compound, other results behind:

IC50 (P2X purinoceptor 7 [1]) | AUC [2] | concentration at 6 h [3] | SMILES | other results
24 nM | 13.7 µM·h | 2640 nM | CCN1C(=O)c2nc(-c3ccc(-c4ccccc4)nc3)n(Cc3ccc(F)c(F)c3)c2N2CC(C)(C)N=C12 | –
50 nM | – | – | CCN1C(=O)c2nc(-c3ccc(-c4ccc(OC)cc4)nc3)n(Cc3ccc(F)c(F)c3)c2N2CC(C)(C)N=C12 | –
110 nM | – | – | CCN1C(=O)c2nc(-c3ccc(-c4cccc(OC(F)(F)F)c4)nc3)n(Cc3ccc(F)c(F)c3)c2N2CC(C)(C)N=C12 | –
25 nM | 0.231 µM·h | – | CCN1C(=O)c2nc(-c3ccc(-c4cccc(C)c4)nc3)n(Cc3ccc(F)c(F)c3)c2N2CC(C)(C)N=C12 | –
52 nM | 2.71 µM·h | 537 nM | CCN1C(=O)c2nc(-c3ccc(-c4ccccc4F)nc3)n(Cc3ccc(F)c(F)c3)c2N2CC(C)(C)N=C12 | –
39 nM | – | – | CCN1C(=O)c2nc(-c3ccc(-c4ccc(C)cc4)nc3)n(Cc3ccc(F)c(F)c3)c2N2CC(C)(C)N=C12 | –
104 nM | 1.84 µM·h | 395 nM | CCN1C(=O)c2nc(-c3ccc(-c4cccc(C(F)(F)F)c4)nc3)n(Cc3ccc(F)c(F)c3)c2N2CC(C)(C)N=C12 | –
28 nM | 3.56 µM·h | 897 nM | CCN1C(=O)c2nc(-c3ccc(-c4cccc(F)c4)nc3)n(Cc3ccc(F)c(F)c3)c2N2CC(C)(C)N=C12 | –
137 nM | 5.68 µM·h | 1570 nM | CCN1C(=O)c2nc(-c3ccc(-c4ccc(C(F)(F)F)cc4)nc3)n(Cc3ccc(F)c(F)c3)c2N2CC(C)(C)N=C12 | –
55 nM | 7.54 µM·h | 1260 nM | CCN1C(=O)c2nc(-c3ccc(-c4cc(F)cc(F)c4)nc3)n(Cc3ccc(F)c(F)c3)c2N2CC(C)(C)N=C12 | –
45 nM | 3.56 µM·h | 897 nM | CCN1C(=O)c2nc(-c3ccc(-c4ccc(F)cc4)nc3)n(Cc3ccc(F)c(F)c3)c2N2CC(C)(C)N=C12 | –
101 nM | 1.62 µM·h | 224 nM | CCN1C(=O)c2nc(-c3ccc(-c4ccccc4OC)nc3)n(Cc3ccc(F)c(F)c3)c2N2CC(C)(C)N=C12 | –
